In US20240050571A1, “CARBORANE HYDROXAMIC ACID MATRIX METALLOPROTEINASE INHIBITORS AND AGENTS FOR BORON NEUTRON CAPTURE THERAPY” (LOYOLA UNIVERSITY OF CHICAGO, priority 2018, published 2024):

Key:
[1] = target: MMP-2 (Homo sapiens (Human), UniProt P08253); conditions: read-out: MMP-2 IC50
[2] = target: MMP-9 (Homo sapiens (Human), UniProt P14780); assay: Assay for inhibition of MMP (fluorescence), MMP-9; conditions: read-out: MMP-9 IC50
Chain of MMP-9 (P14780 107-707 limits assumed): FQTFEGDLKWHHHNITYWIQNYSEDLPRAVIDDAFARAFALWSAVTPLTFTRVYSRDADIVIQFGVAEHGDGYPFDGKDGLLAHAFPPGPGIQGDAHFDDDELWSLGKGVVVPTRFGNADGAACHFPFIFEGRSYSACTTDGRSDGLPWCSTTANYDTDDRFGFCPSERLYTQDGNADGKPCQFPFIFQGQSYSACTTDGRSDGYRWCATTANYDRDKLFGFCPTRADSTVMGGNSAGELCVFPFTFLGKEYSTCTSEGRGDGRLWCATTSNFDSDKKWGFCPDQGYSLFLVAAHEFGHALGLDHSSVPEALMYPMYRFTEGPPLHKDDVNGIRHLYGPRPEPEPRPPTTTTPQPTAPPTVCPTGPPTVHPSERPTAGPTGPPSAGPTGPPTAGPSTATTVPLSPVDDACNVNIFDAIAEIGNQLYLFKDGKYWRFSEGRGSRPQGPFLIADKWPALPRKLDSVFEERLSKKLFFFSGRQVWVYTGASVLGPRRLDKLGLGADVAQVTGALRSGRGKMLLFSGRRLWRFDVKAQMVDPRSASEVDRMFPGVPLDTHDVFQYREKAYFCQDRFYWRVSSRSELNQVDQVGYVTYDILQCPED

Chain of MMP-2 (P08253 110-660 limits assumed): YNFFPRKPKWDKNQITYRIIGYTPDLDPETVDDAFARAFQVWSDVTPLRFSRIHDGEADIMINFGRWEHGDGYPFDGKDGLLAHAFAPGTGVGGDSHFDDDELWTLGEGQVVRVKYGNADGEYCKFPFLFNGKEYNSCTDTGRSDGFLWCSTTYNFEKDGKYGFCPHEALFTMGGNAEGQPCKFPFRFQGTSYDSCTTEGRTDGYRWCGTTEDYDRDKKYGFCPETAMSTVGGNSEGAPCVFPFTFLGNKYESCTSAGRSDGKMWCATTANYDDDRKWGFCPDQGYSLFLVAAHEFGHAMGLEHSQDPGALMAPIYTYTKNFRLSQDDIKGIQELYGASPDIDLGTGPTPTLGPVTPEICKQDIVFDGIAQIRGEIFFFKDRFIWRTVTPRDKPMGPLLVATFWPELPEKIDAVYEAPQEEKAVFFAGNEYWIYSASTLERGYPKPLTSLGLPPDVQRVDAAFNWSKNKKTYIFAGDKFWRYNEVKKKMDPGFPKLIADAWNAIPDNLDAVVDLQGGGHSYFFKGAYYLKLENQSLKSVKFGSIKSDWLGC

COc1ccc(S(=O)(=O)N(CC(=O)NO)CC(C)C)cc1 [NNGH, N-Isobutyl-N-(4-methoxyphenylsulfonyl)glycyl hydroxamic acid]
IC50 [1]: 2.7 nM
IC50 [2]: 5 nM
